Data taken from patent publication US3945994A, “Novel acid compounds” (Gist-Brocades N.V., priority 1973, dated 1976).
Values after ≈ are worked out from the molar mass of the structure shown.

Columns and labels:
Format in all cases: cell-based
[1] = tested on: Bacillus subtilis ATCC 6633; conditions: ATCC6633, agar serial dilution, 24 hours at 37°C
[2] = tested on: Staphylococcus aureus A 321; conditions: A321, agar serial dilution, 24 hours at 37°C
[3] = tested on: Streptococcus haemolyticus A 266; conditions: A266, agar serial dilution, 24 hours at 37°C
[4] = tested on: Streptococcus faecalis L 80; conditions: Enterococcus faecalis, L80; agar serial dilution, 24 hours at 37°C
[5] = tested on: Diplococcus pneumoniae L 54; conditions: Streptococcus pneumoniae, L54; agar serial dilution, 24 hours at 37°C
[6] = tested on: Pasteurella multocida A 723; conditions: A723, agar serial dilution, 24 hours at 37°C
[7] = tested on: Klebsiella pneumoniae A 809; conditions: A809, agar serial dilution, 24 hours at 37°C
Salmonella dublin P 43 = conditions: Salmonella enterica, P43; agar serial dilution, 24 hours at 37°C
[8] = tested on: Salmonella typhimurium R 127; conditions: Salmonella enterica, agar serial dilution, 24 hours at 37°C
Escherichia coli U 20 = conditions: U20, agar serial dilution, 24 hours at 37°C
[9] = tested on: Pseudomonas aeruginosa H 10; conditions: H10, agar serial dilution, 24 hours at 37°C
[10] = tested on: Pseudomonas aeruginosa 2396; conditions: agar serial dilution, 24 hours at 37°C
[11] = tested on: Pseudomonas aeruginosa Wyeth A 1058; conditions: WYETHA1058, agar serial dilution, 24 hours at 37°C
Proteus rettgeri A 821 = conditions: Providencia rettgeri, A821; agar serial dilution, 24 hours at 37°C
Proteus mirabilis H 3 = conditions: H3, agar serial dilution, 24 hours at 37°C
Proteus morganii 2241 = conditions: Morganella morganii, agar serial dilution, 24 hours at 37°C
[12] = tested on: Staphylococcus aureus A 355'; conditions: agar serial dilution, 24 hours at 37°C
[13] = tested on: Staphylococcus aureus A 2000; conditions: A2000, agar serial dilution, 24 hours at 37°C
[14] = tested on: Staphylococcus aureus A 2001; conditions: A2001, agar serial dilution, 24 hours at 37°C
Proteus mirabilis A 1200 = conditions: A1200, agar serial dilution, 24 hours at 37°C

Row | MIC [1] | MIC [2] | MIC [4] | MIC [5] | MIC [6] | MIC [7] | MIC (Salmonella dublin P 43) | MIC [8] | MIC (Escherichia coli U 20) | MIC [9] | MIC [10] | MIC [11] | MIC (Proteus rettgeri A 821) | MIC (Proteus mirabilis H 3) | MIC (Proteus morganii 2241) | MIC [12] | MIC [13] | MIC [14] | MIC (Proteus mirabilis A 1200) | SMILES | MIC [3]
1 | 0.25 µg/mL (≈ 0.456 µM) | 3 µg/mL (≈ 5.47 µM) | 6 µg/mL (≈ 10.9 µM) | 0.25 µg/mL (≈ 0.456 µM) | 0.5 µg/mL (≈ 0.911 µM) | > 100 µg/mL | 50 µg/mL (≈ 91.1 µM) | > 100 µg/mL | > 100 µg/mL | > 100 µg/mL | 50 µg/mL (≈ 91.1 µM) | 50 µg/mL (≈ 91.1 µM) | 3 µg/mL (≈ 5.47 µM) | < 0.75 µg/mL | > 100 µg/mL | – | – | – | – | CC1(C)S[C@@H]2[C@H](NC(=O)[C@H](NC(=O)NS(=O)(=O)Nc3cccnc3)c3ccccc3)C(=O)N2[C@H]1C(=O)O [XI, D-6-[α-{3-(pyrid-3-ylaminosulfonyl)-ureido}-benzylcarbonamido]-penicillanic acid] | 0.12 µg/mL (≈ 0.219 µM)
2 | 1.5 µg/mL (≈ 2.71 µM) | 3 µg/mL (≈ 5.43 µM) | 25 µg/mL (≈ 45.2 µM) | – | 1.5 µg/mL (≈ 2.71 µM) | 50 µg/mL (≈ 90.5 µM) | 12.5 µg/mL (≈ 22.6 µM) | 25 µg/mL (≈ 45.2 µM) | 25 µg/mL (≈ 45.2 µM) | 100 µg/mL (≈ 181 µM) | 25 µg/mL (≈ 45.2 µM) | 25 µg/mL (≈ 45.2 µM) | 6 µg/mL (≈ 10.9 µM) | 6 µg/mL (≈ 10.9 µM) | 50 µg/mL (≈ 90.5 µM) | 25 µg/mL (≈ 45.2 µM) | 25 µg/mL (≈ 45.2 µM) | 12.5 µg/mL (≈ 22.6 µM) | 1.5 µg/mL (≈ 2.71 µM) | Cc1cc(NS(=O)(=O)NC(=O)N[C@@H](C(=O)N[C@@H]2C(=O)N3[C@@H]2SC(C)(C)[C@@H]3C(=O)O)c2ccccc2)no1 [XII, D-6-[α-{3-(5-methylisoxazol-3-yl-aminosulfonyl)-ureido}-benzylcarbonamido]-penicillanic acid] | 1.5 µg/mL (≈ 2.71 µM)
3 | 0.5 µg/mL (≈ 0.882 µM) | 1 µg/mL (≈ 1.76 µM) | 12.5 µg/mL (≈ 22.1 µM) | 1.5 µg/mL (≈ 2.65 µM) | 0.12 µg/mL (≈ 0.212 µM) | 100 µg/mL (≈ 176 µM) | 25 µg/mL (≈ 44.1 µM) | 50 µg/mL (≈ 88.2 µM) | 12.5 µg/mL (≈ 22.1 µM) | 100 µg/mL (≈ 176 µM) | 50 µg/mL (≈ 88.2 µM) | 25 µg/mL (≈ 44.1 µM) | 3 µg/mL (≈ 5.29 µM) | 12.5 µg/mL (≈ 22.1 µM) | 100 µg/mL (≈ 176 µM) | 25 µg/mL (≈ 44.1 µM) | 12.5 µg/mL (≈ 22.1 µM) | 3 µg/mL (≈ 5.29 µM) | 6 µg/mL (≈ 10.6 µM) | Cc1noc(NS(=O)(=O)NC(=O)N[C@@H](C(=O)N[C@@H]2C(=O)N3[C@@H]2SC(C)(C)[C@@H]3C(=O)O)c2ccccc2)c1C [XIII, D-6-[α-{3-(3,4-dimethylisoxazol-5-yl-aminosulfonyl)ureido}-benzylcarbonamido]-penicillanic acid] | 0.12 µg/mL (≈ 0.212 µM)
4 | 1.5 µg/mL (≈ 2.77 µM) | 6 µg/mL (≈ 11.1 µM) | 25 µg/mL (≈ 46.2 µM) | – | 0.25 µg/mL (≈ 0.462 µM) | 100 µg/mL (≈ 185 µM) | 50 µg/mL (≈ 92.3 µM) | 100 µg/mL (≈ 185 µM) | 50 µg/mL (≈ 92.3 µM) | 100 µg/mL (≈ 185 µM) | 50 µg/mL (≈ 92.3 µM) | 100 µg/mL (≈ 185 µM) | 1.5 µg/mL (≈ 2.77 µM) | 6 µg/mL (≈ 11.1 µM) | 100 µg/mL (≈ 185 µM) | 25 µg/mL (≈ 46.2 µM) | 25 µg/mL (≈ 46.2 µM) | 12.5 µg/mL (≈ 23.1 µM) | 3 µg/mL (≈ 5.54 µM) | CC1(C)S[C@@H]2[C@H](NC(=O)[C@H](NC(=O)NS(=O)(=O)N3CCOCC3)c3ccccc3)C(=O)N2[C@H]1C(=O)O [XIV, D-6-[α-{3-(morpholino-sulfonyl)-ureido}-benzylcarbonamido]-penicillanic acid] | 3 µg/mL (≈ 5.54 µM)
5 | 0.5 µg/mL (≈ 1.06 µM) | 3 µg/mL (≈ 6.36 µM) | 6 µg/mL (≈ 12.7 µM) | – | 0.5 µg/mL (≈ 1.06 µM) | > 100 µg/mL | 100 µg/mL (≈ 212 µM) | > 100 µg/mL | 100 µg/mL (≈ 212 µM) | > 100 µg/mL | 50 µg/mL (≈ 106 µM) | 50 µg/mL (≈ 106 µM) | 25 µg/mL (≈ 53 µM) | 50 µg/mL (≈ 106 µM) | > 100 µg/mL | 25 µg/mL (≈ 53 µM) | 25 µg/mL (≈ 53 µM) | 6 µg/mL (≈ 12.7 µM) | 25 µg/mL (≈ 53 µM) | CC1(C)S[C@@H]2[C@H](NC(=O)[C@H](NC(=O)NS(N)(=O)=O)c3ccccc3)C(=O)N2[C@H]1C(=O)O [XVI, D-6-[α-{3-(aminosulfonyl)-ureido}-benzylcarbonamido]-penicillanic acid] | 0.12 µg/mL (≈ 0.254 µM)
6 | 0.5 µg/mL (≈ 1.17 µM) | 0.5 µg/mL (≈ 1.17 µM) | 1.5 µg/mL (≈ 3.5 µM) | – | 0.5 µg/mL (≈ 1.17 µM) | > 100 µg/mL | 6 µg/mL (≈ 14 µM) | 12.5 µg/mL (≈ 29.2 µM) | 12.5 µg/mL (≈ 29.2 µM) | > 100 µg/mL | 50 µg/mL (≈ 117 µM) | > 100 µg/mL | 1.5 µg/mL (≈ 3.5 µM) | 12.5 µg/mL (≈ 29.2 µM) | 25 µg/mL (≈ 58.3 µM) | 12.5 µg/mL (≈ 29.2 µM) | 6 µg/mL (≈ 14 µM) | 3 µg/mL (≈ 7 µM) | 6 µg/mL (≈ 14 µM) | CC1(C)S[C@@H]2[C@H](NC(=O)[C@H](NS(N)(=O)=O)c3ccccc3)C(=O)N2[C@H]1C(=O)O [XVIII, D-6-[α-(aminosulfonylamino)-benzylcarbonamido]-penicillanic acid] | 0.06 µg/mL (≈ 0.14 µM)
